Laboratory results taken from patent publication US20220062240A1, “METHODS OF TREATING CANCER USING A CLK INHIBITOR” (BioSplice Therapeutics, Inc., priority 2018, published 2022).
Read-outs that look alike come from different tables or passages of the source. One block for each compound: values may come before it.

How the values were obtained:
CLK2 = molecular target: T1, CLK2 (Homo sapiens, UniProt P49760); assay: CLK2 kinase activity assay (Z-lyte, Ser/Thr 6 peptide); format: biochemical; conditions: recombinant CLK2 kinase, ATP 60 μM; read-out: EC50
T1 construct: purchased Thermo Fisher (Life Technologies), Z'-LYTE Kinase Assay Kits
T1 sequence (P49760 whole entry): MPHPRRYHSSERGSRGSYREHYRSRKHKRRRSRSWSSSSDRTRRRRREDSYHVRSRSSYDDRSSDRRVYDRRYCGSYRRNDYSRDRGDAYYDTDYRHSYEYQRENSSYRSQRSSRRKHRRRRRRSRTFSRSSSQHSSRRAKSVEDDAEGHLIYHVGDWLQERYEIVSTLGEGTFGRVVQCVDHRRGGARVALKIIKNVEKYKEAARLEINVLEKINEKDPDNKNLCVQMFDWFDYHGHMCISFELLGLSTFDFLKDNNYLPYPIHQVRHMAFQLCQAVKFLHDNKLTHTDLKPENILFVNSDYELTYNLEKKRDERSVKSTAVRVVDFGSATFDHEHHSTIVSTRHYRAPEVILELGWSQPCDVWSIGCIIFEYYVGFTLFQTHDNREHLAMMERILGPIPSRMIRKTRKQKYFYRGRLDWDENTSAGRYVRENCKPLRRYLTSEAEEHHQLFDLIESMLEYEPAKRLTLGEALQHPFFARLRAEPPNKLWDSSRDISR
Experimental: All reactions were performed in duplicate.

BT-549 = assay: CellTiter-Glo Viability Assay, breast cancer; format: cell-based; conditions: Homo sapiens, 96 h; BT-549, breast cancer, four days; read-out: EC50
CAMA1 = assay: CellTiter-Glo Viability Assay, breast cancer; format: cell-based; conditions: Homo sapiens, CAMA-1, 96 h; CAMA1, breast cancer, four days; read-out: EC50
DU4475 = assay: CellTiter-Glo Viability Assay, breast cancer; format: cell-based; conditions: Homo sapiens, DU-4475, 96 h; DU4475, breast cancer, four days; read-out: EC50
HCC1599 = assay: CellTiter-Glo Viability Assay, breast cancer; format: cell-based; conditions: Homo sapiens, 96 h; HCC1599, breast cancer, four days; read-out: EC50
MCF7 = assay: CellTiter-Glo Viability Assay, breast cancer; format: cell-based; conditions: Homo sapiens, 96 h; MCF7, breast cancer, four days; read-out: EC50
MDA-MB-231-Luc = assay: CellTiter-Glo Viability Assay, breast cancer; format: cell-based; conditions: Homo sapiens, 96 h; MDA-MB-231-Luc, breast cancer, four days; read-out: EC50
T47D = assay: CellTiter-Glo Viability Assay, breast cancer; format: cell-based; conditions: Homo sapiens, 96 h, breast cancer, four days, read-out: EC50
ZR-75-1 = assay: CellTiter-Glo Viability Assay, breast cancer; format: cell-based; conditions: Homo sapiens, 96 h; ZR-75-1, breast cancer, four days; read-out: EC50
all 50 cell lines = assay: CellTiter-Glo Viability Assay, average across all cell lines; format: cell-based; conditions: Homo sapiens; across all 50 cell lines; read-out: average EC50 for inhibition of cancer cell proliferation
How it was run: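 Luminescent ATP read-out (CellTiter-Glo) after a 4-day compound exposure at 37° C served as the viability measure. Cells were seeded at 300-3,000/well, compound wells run in duplicate against DMSO controls, and EC50 values came from fitted dose-response curves.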

[1] = system: colorectal cancer (6 cell lines); assay: CellTiter-Glo Viability Assay, colorectal cancer; format: cell-based; conditions: Homo sapiens, inhibition of cancer cell proliferation
[2] = system: haematopoietic & lymphoid tumors (13 cell lines); assay: CellTiter-Glo Viability Assay, haematopoietic & lymphoid tumors; format: cell-based; conditions: Homo sapiens, inhibition of cancer cell proliferation
[3] = system: liver cancer (3 cell lines); assay: CellTiter-Glo Viability Assay, liver cancer; format: cell-based; conditions: Homo sapiens, inhibition of cancer cell proliferation
[4] = system: lung cancer (4 cell lines); assay: CellTiter-Glo Viability Assay, lung cancer; format: cell-based; conditions: Homo sapiens, inhibition of cancer cell proliferation
[5] = system: ovarian cancer (4 cell lines); assay: CellTiter-Glo Viability Assay, ovarian cancer; format: cell-based; conditions: Homo sapiens, inhibition of cancer cell proliferation
[6] = system: pancreatic cancer (8 cell lines); assay: CellTiter-Glo Viability Assay, pancreatic cancer; format: cell-based; conditions: Homo sapiens, inhibition of cancer cell proliferation
[7] = system: prostate cancer (5 cell lines); assay: CellTiter-Glo Viability Assay, prostate cancer; format: cell-based; conditions: Homo sapiens
[8] = HCT-116, HCT116 cell line, read-out: Colorectal cancer, EC50 (μM) HCT116
[9] = HT-29, HT29 cell line, read-out: Colorectal cancer, EC50 (μM) HT29
[10] = SW-620, SW620 cell line, read-out: Colorectal cancer, EC50 (μM) SW620
[11] = DLD-1 cell line, read-out: Colorectal cancer, EC50 (μM) DLD-1
[12] = SW48 cell line, read-out: Colorectal cancer, EC50 (μM) SW48
[13] = DND41, DND-41 cell line, read-out: Haematopoietic & Lymphoid tumors, EC50 (μM) DND-41
[14] = MV4-11, MV-4-11 cell line, read-out: Haematopoietic & Lymphoid tumors, EC50 (μM) MV-4-11
[15] = Rec1, REC-1 cell line, read-out: Haematopoietic & Lymphoid tumors, EC50 (μM) REC-1
[16] = SU-DHL-4, SUDHL4 cell line, read-out: Haematopoietic & Lymphoid tumors, EC50 (μM) SUDHL4
[17] = HL-60 cell line, read-out: Haematopoietic & Lymphoid tumors, EC50 (μM) HL-60
[18] = JM1 cell line, read-out: Haematopoietic & Lymphoid tumors, EC50 (μM) JM1
[19] = JURKAT, Clone E6-1 cell line, read-out: Haematopoietic & Lymphoid tumors, EC50 (μM) JURKAT, Clone E6-1
[20] = JeKo-1 cell line, read-out: Haematopoietic & Lymphoid tumors, EC50 (μM) JeKo-1
[21] = KASUMI-1 cell line, read-out: Haematopoietic & Lymphoid tumors, EC50 (μM) KASUMI-1
[22] = Loucy cell line, read-out: Haematopoietic & Lymphoid tumors, EC50 (μM) Loucy
[23] = MOLT-4 cell line, read-out: Haematopoietic & Lymphoid tumors, EC50 (μM) MOLT-4
[24] = TF-1 cell line, read-out: Haematopoietic & Lymphoid tumors, EC50 (μM) TF-1
[25] = TOLEDO cell line, read-out: Haematopoietic & Lymphoid tumors, EC50 (μM) TOLEDO
[26] = SNU-398, SNU398 cell line, read-out: Liver cancer, EC50 SNU398
[27] = HEPG2 cell line, read-out: Liver cancer, EC50 HEPG2
[28] = PLC/PRF/5 cell line, read-out: Liver cancer, EC50 PLC/PRF/5
[29] = A-427, A427 cell line, read-out: Lung cancer, EC50 (μM) A427
[30] = HCC78, HCC-78 cell line, read-out: Lung cancer, EC50 (μM) HCC-78
[31] = NCI-H460 cell line, read-out: Lung cancer, EC50 (μM) NCI-H460
[32] = NCI-H522 cell line, read-out: Lung cancer, EC50 (μM) NCI-H522
[33] = PA-1, PA1 cell line, read-out: Ovarian cancer, EC50 (μM) PA1
[34] = TOV112D, TOV-112D cell line, read-out: Ovarian cancer, EC50 (μM) TOV-112D
[35] = OV-90 cell line, read-out: Ovarian cancer, EC50 (μM) OV-90
[36] = OVCAR-3 cell line, read-out: Ovarian cancer, EC50 (μM) OVCAR-3
[37] = DU-145, read-out: Prostate cancer EC50 Du-145
[38] = PC-3, PC3 cell line, inhibition of cancer cell proliferation, read-out: Prostate cancer EC50 PC3
[39] = 22Rv1 cell line, inhibition of cancer cell proliferation, read-out: Prostate cancer EC50 22Rv1
[40] = LNCap clone FGC cell line, inhibition of cancer cell proliferation, read-out: Prostate cancer EC50 LNCap clone FGC
[41] = VCaP (Sigma) cell line, inhibition of cancer cell proliferation, read-out: Prostate cancer EC50 VCaP (Sigma)

EC50 (CLK2): 0.0053 µM
EC50 (BT-549): > 10 µM
EC50 (CAMA1): > 10 µM
EC50 (DU4475): 0.387 µM
EC50 (HCC1599): 0.026 µM
EC50 (MCF7): > 10 µM
EC50 (MDA-MB-231-Luc): > 10 µM
EC50 (T47D): > 10 µM
EC50 (ZR-75-1): > 10 µM
EC50 [1, 8]: > 10 µM
EC50 [1, 9]: > 10 µM
EC50 [1, 10]: > 10 µM
EC50 [1, 11]: > 10 µM
EC50 [1, 12]: 0.393 µM
EC50 [2, 13]: 7.8 µM
EC50 [2, 14]: 0.19 µM
EC50 [2, 15]: > 10 µM
EC50 [2, 16]: > 10 µM
EC50 [2, 17]: > 10 µM
EC50 [2, 18]: > 10 µM
EC50 [2, 19]: > 10 µM
EC50 [2, 20]: 0.452 µM
EC50 [2, 21]: > 10 µM
EC50 [2, 22]: > 10 µM
EC50 [2, 23]: > 10 µM
EC50 [2, 24]: > 10 µM
EC50 [2, 25]: > 10 µM
EC50 [3, 26]: 0.473 µM
EC50 [3, 27]: > 10 µM
EC50 [3, 28]: > 10 µM
EC50 [4, 29]: > 10 µM
EC50 [4, 30]: > 10 µM
EC50 [4, 31]: > 10 µM
EC50 [4, 32]: > 10 µM
EC50 [5, 33]: > 10 µM
EC50 [5, 34]: > 10 µM
EC50 [5, 35]: > 10 µM
EC50 [5, 36]: 0.554 µM
EC50 ([6]; BXPC-3, BxPC3 cell line, read-out: Pancreatic cancer, EC50 BxPC3): > 10 µM
EC50 ([6]; CAPAN-1, Capan1 cell line, read-out: Pancreatic cancer, EC50 Capan1): > 10 µM
EC50 ([6]; Capan-2, Capan2 cell line, read-out: Pancreatic cancer, EC50 Capan2): > 10 µM
EC50 ([6]; MIA PaCa-2 cell line, read-out: Pancreatic cancer, EC50 MIA PaCa-2): > 10 µM
EC50 ([6]; PANC 05.04 cell line, read-out: Pancreatic cancer, EC50 PANC 05.04): > 10 µM
EC50 ([6]; PANC-1 cell line, read-out: Pancreatic cancer, EC50 PANC-1): > 10 µM
EC50 ([6]; UPAFII cell line, read-out: Pancreatic cancer, EC50 UPAFII): > 10 µM
EC50 [7, 37]: > 10 µM
EC50 [7, 38]: > 10 µM
EC50 [7, 39]: 7.43 µM
EC50 [7, 40]: > 10 µM
EC50 [7, 41]: > 10 µM
SMILES: O=C1CCc2cccc(c2)-c2cncc(c2)NC(=O)c2n[nH]c3ccc(cc23)-c2cncc(c2)CN1 [Compound 62]
EC50 (all 50 cell lines): 8.55 µM

EC50 (CLK2): 0.0019 µM
EC50 (BT-549): 0.346 µM
EC50 (CAMA1): 0.694 µM
EC50 (DU4475): 0.302 µM
EC50 (HCC1599): 0.168 µM
EC50 (MCF7): 1.9 µM
EC50 (MDA-MB-231-Luc): 0.75 µM
EC50 (T47D): 0.997 µM
EC50 (ZR-75-1): 0.971 µM
EC50 [1, 8]: 0.239 µM
EC50 [1, 9]: 0.52 µM
EC50 [1, 10]: 0.163 µM
EC50 [1, 11]: 0.215 µM
EC50 [1, 12]: 0.151 µM
EC50 ([1]; SW480 cell line, read-out: Colorectal cancer, EC50 (μM) SW480): 0.313 µM
EC50 [2, 13]: 0.491 µM
EC50 [2, 14]: 0.076 µM
EC50 [2, 15]: 0.134 µM
EC50 [2, 16]: 0.376 µM
EC50 [2, 17]: 0.76 µM
EC50 [2, 18]: 0.135 µM
EC50 [2, 19]: 0.464 µM
EC50 [2, 20]: 0.157 µM
EC50 [2, 21]: 0.203 µM
EC50 [2, 22]: 0.241 µM
EC50 [2, 23]: 0.465 µM
EC50 [2, 24]: 0.673 µM
EC50 [2, 25]: 0.134 µM
EC50 [3, 26]: 0.121 µM
EC50 [3, 27]: 0.716 µM
EC50 [3, 28]: 1.1 µM
EC50 [4, 29]: 0.355 µM
EC50 [4, 30]: 0.835 µM
EC50 [4, 31]: 0.574 µM
EC50 [4, 32]: 0.188 µM
EC50 [5, 33]: 0.495 µM
EC50 [5, 34]: 0.229 µM
EC50 [5, 35]: 1.49 µM
EC50 [5, 36]: 0.195 µM
EC50 [7, 37]: 0.549 µM
EC50 [7, 38]: 0.438 µM
EC50 [7, 39]: 0.347 µM
EC50 [7, 40]: 0.587 µM
EC50 [7, 41]: 0.823 µM
SMILES: Cn1cc(-c2ccc3cnc(NC(=O)c4ccc5c(c4)CNCC5)cc3c2)cn1 [Compound 74]
EC50 (all 50 cell lines): 0.504 µM
